In patent publication US20210220367A1, “INHALABLE FORMULATION OF A SOLUTION CONTAINING GLYCOPYRROLATE AND OLODATEROL HYDROCHLORIDE” (priority 2020, published 2021):

Experiment: Aerodynamic particle size distribution, Next Generation Pharmaceutical Impactor (NGI)
Format: physicochemical
Settings: sample 2 (GB 1.13 mg/ml; pH 3.0), soft mist inhaler, NGI 30 L/minute, RH 90%, HPLC per active
Description: The aerodynamic particle size distribution was determined using a Next Generation Pharmaceutical Impactor (NGI). The soft mist inhaler was held close to the NGI inlet until no aerosol was visible. The flow rate of the NGI was set to 30 L/minute and was operated under ambient temperature and a relative humidity (RH) of 90%.
The solution of sample 2 was discharged into the NGI. Fractions of the dose were deposited at different stages of the NGI, in accordance with the particle size of the fraction. Each fraction was washed from the stage and analyzed using HPLC.
The particle size distribution was expressed in terms of mass median aerodynamic diameter (MMAD) and Geometric Standard Deviation (GSD). […] The sample is sample 2 as described in Example 4 (GB 1.13 mg/ml; pH 3.0). The aerodynamic particle size distribution of sample 2 was investigated by means of the original research device of TB-OH and a new generation of cascade impactor.

Compound | GSD | MMAD (μm)
COc1ccc(CC(C)(C)NC[C@H](O)c2cc(O)cc3c2OCC(=O)N3)cc1.Cl [Olodaterol hydrochloride, 2H-1,4-Benzoxazin-3H(4H)-one, 6-hydroxy-8-[(1R)-1-hydroxy-2-[[2-(4-methoxyphenyl)-1,1-dimethylethyl]-amino]ethyl], monohydrochloride] | 1.79 | 4.01
(3RS)-3-[(2SR)-(2-cyclopentyl-2-hydroxy-2-penylacetyl)oxy]-1,1-dimethlypyrrolidinium bromide [Glycopyrrolate] | 1.77 | 4.05
